{"source": "patent US12268770B2", "about": "“Use of cell membrane-bound signaling factors” (AiVita Biomedical, Inc., priority 2017, dated 2025)", "tested_on": "plucked human hair follicles", "experiment": "ex vivo culture of plucked human hair", "format": "cell-based", "conditions": "0.25 mM; 5 days of exposure; no other growth factors", "experimental": "Plucked human hair with evident presence of the bulb area were immersed immediately after collection in cell growth media. Some of the hair samples were exposed to with lipid-modified protein/MBCD complexes (loaded MBCD) from embryonic stem cell culture as described in Example 2 (referred to as active ingredient), or unloaded MBCD as control, at the same concentration of 0.25 mM of the cyclodextrin component. No other growth factors (e.g., EGF, KGF, etc) were used in the hair follicle cultures."}
{"substance": "methyl-β-cyclodextrin [unloaded MBCD]", "values": [{"measurement": "status of follicles in culture", "value": "underwent senescence and detached from the substrate"}]}
